Values of other authors as cited in patent publication US20080176787A1, “Parathyroid hormone analogues and methods of use” (priority 2005, published 2008).
Where two headings read alike, the source gives them in different places. Marks after values point to notes of the source that are not given here.

Columns and labels:
[1] = system: OVX adult Cynomolgus monkeys; conditions: Femoral Neck, F, 18 months, cited from earlier work
patients = conditions: cited from earlier work
monkey = conditions: cited from earlier work
rats = conditions: rat, in vivo; cited from earlier work
[2] = system: OVX adult Cynomolgus monkeys; conditions: Humerus Mid-Diaphysis, F, 18 months, cited from earlier work
[3] = system: postmenopausal women (with prior vertebral fractures); conditions: cited from earlier work; for hypercalcemia seen at least once, % of subjects: average of 19 months (placebo 2%)
[4] = 20 μg (6 months), inferred from graphed data
[5] = teriparatide 0, 0.5, 2, 10 μg/kg, 12 mth monkey

SMILES: CC[C@H](C)[C@H](NC(=O)[C@H](CCC(=O)O)NC(=O)[C@H](CO)NC(=O)[C@@H](NC(=O)[C@@H](N)CO)C(C)C)C(=O)N[C@@H](CCC(N)=O)C(=O)N[C@@H](CC(C)C)C(=O)N[C@@H](CCSC)C(=O)N[C@@H](Cc1cnc[nH]1)C(=O)N[C@@H](CC(N)=O)C(=O)N[C@@H](CC(C)C)C(=O)NCC(=O)N[C@@H](CCCCN)C(=O)N[C@@H](Cc1cnc[nH]1)C(=O)N[C@@H](CC(C)C)C(=O)N[C@@H](CC(N)=O)C(=O)N[C@@H](CO)C(=O)N[C@@H](CCSC)C(=O)N[C@@H](CCC(=O)O)C(=O)N[C@@H](CCCN=C(N)N)C(=O)N[C@H](C(=O)N[C@@H](CCC(=O)O)C(=O)N[C@@H](Cc1c[nH]c2ccccc12)C(=O)N[C@@H](CC(C)C)C(=O)N[C@@H](CCCN=C(N)N)C(=O)N[C@@H](CCCCN)C(=O)N[C@@H](CCCCN)C(=O)N[C@@H](CC(C)C)C(=O)N[C@@H](CCC(N)=O)C(=O)N[C@@H](CC(=O)O)C(=O)N[C@H](C(=O)N[C@@H](Cc1cnc[nH]1)C(=O)N[C@@H](CC(N)=O)C(=O)N[C@@H](Cc1ccccc1)C(=O)O)C(C)C)C(C)C [Forteo, hPTH-(1-34)]
- % Cortical Porosity ([1]; 1 μg/kg/day): 8.5 ± 0.8 %
- % Cortical Porosity ([1]; 5 μg/kg/day): 8.9 ± 0.6 %
- CTx (patients; [4]): 3300^2 pM/L
- P1NP (patients; [4]): 71^2 μg/L
- TH-BMD (%) (patients; [4]): 0.6^2%
- FN-BMD (%) (patients; 20 μg (6 months)): 1.02%
- LS-BMD (%) (patients; 20 μg (6 months)): 5.2%
- Mean [Ca] (patients; 20 μg (6 months)): 0.075 mmol/L
- Pts > 2.75 mmol/L (patients; in vivo): 5
- Pts > 2.75 mmol/L (sustained) (patients; in vivo): 2
- nephropathy (monkey; pre-clinical toxicity): induces a mineralizing nephropathy in monkeys and possibly rats
- Free Ca (monkey; [5]): Free Ca increased
- serum neutralising antibodies (monkey; [5]): detected all doses
- tubulo-interstitial nephritis (monkey; [5]): nephritis all doses;
- NoAEL (monkey; teriparatide, 12 mth monkey): <0.5 µg/kg
- osteosarcoma in rats (warning label) (rats): increase in incidence of osteosarcoma in rats
- % Cortical Porosity ([2]; 1 μg/kg/day): ~15.0* %
- % Cortical Porosity ([2]; 5 μg/kg/day): ~25* %
- Mean % Change In Femoral Neck (BMD) ([3]; 20 μg for at least 12 Months): 1.54%
- Mean % Change In Total Hip (BMD) ([3]; 20 μg for at least 12 Months): 1.70%
- Mean % Change In Trochanter (BMD) ([3]; 20 μg for at least 12 Months): 2.68%
- hypercalcemia seen at least once, % of subjects ([3]; 20 μg/day): 11%
- hypercalcemia seen at least once, % of subjects ([3]; 40 μg/day): 28%
- BMD in distal and mid-shaft radius compared to placebo ([3]; Neer et al.): decrease in BMD
